Earlier results as cited in article PMC3880798 (Clinical cancer research : an official journal of the …, 2013).
Like-named read-outs stand apart in the source and are kept apart here.

Key:
c-Kit = details: intact cellular systems; cited from earlier work
GIST = details: cited from earlier work
[1] = cited from earlier work

In the case of Cc1ccc(NC(=O)c2ccc(CN3CCN(C)CC3)cc2)cc1Nc1nccc(-c2cccnc2)n1 [imatinib], the “Potency for wild-type versus mutant c-Kit” value (c-Kit) is listed as “significantly lower potency for wild-type c-Kit relative to mutant c-Kit”, the “Median time to progression” value (GIST) is listed as “approximately 2 years” and the “Median duration of response” value (GIST; first-line) is listed as “about 2 years”.

For Cc1cn(-c2cc(NC(=O)c3ccc(C)c(Nc4nccc(-c5cccnc5)n4)c3)cc(C(F)(F)F)c2)cn1 [nilotinib], the Disease stabilization (GIST) is given as 38% and the “Median duration of disease stabilization” value (GIST) is given as 12 weeks.

For Cc1ccc(Nc2nccc(N(C)c3ccc4c(C)n(C)nc4c3)n2)cc1S(N)(=O)=O [pazopanib], the Patients with proteinuria [1] is given as 51%.

In the case of CCN(CC)CCNC(=O)c1c(C)[nH]c(/C=C2\C(=O)Nc3ccc(F)cc32)c1C [sunitinib], the “Incidence of PPE” value [1] is listed as “up to 20%” and the “Median time to progression” value (GIST; standard second-line therapy) is listed as 27 weeks.
